The source of these data is paper PMC10138654, “Structural Insights into M1 Muscarinic Acetylcholine Receptor Signaling Bias between Gαq and β-Arrestin through BRET Assays and Molecular Docking” (International Journal of Molecular Sciences, 2023).

Read-outs that look alike come from different tables or passages of the source.

In assay [1] the target is T1, M1mAChR (Homo sapiens, UniProt P11229).
T1 construct: host or cells: HEK-293T
Kind of assay: cell-based. The following applies: for EC50: HEK293T cells.
Target sequence in this assay (P50148 whole entry partner, one chain of several): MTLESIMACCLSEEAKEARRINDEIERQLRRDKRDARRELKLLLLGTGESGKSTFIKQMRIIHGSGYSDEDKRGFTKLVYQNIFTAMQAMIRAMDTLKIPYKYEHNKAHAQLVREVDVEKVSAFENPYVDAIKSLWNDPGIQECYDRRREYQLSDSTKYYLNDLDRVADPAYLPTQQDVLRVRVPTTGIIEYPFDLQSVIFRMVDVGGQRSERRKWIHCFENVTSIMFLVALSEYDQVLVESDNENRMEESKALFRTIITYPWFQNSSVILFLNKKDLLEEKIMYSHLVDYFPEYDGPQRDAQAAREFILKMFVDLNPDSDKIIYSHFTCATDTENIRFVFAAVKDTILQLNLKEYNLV
Target sequence in this assay (P62879 2-340 partner limits assumed, one chain of several): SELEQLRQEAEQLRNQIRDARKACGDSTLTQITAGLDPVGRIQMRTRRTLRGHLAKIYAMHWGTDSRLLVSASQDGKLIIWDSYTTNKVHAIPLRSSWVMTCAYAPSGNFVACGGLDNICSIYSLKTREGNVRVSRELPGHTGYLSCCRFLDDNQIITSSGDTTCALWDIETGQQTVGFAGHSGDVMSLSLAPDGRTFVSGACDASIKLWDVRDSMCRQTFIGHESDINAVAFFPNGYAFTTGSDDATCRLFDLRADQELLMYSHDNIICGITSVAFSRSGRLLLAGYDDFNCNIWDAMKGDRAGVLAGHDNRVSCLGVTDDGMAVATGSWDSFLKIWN
Target sequence in this assay (P59768 2-68 partner limits assumed, one chain of several): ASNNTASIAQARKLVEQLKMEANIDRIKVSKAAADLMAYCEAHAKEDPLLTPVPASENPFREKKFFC

Assay [2] addresses T1, M1mAChR. Description: cell-based.
Target sequence in this assay (P32121 whole entry partner, one chain of several): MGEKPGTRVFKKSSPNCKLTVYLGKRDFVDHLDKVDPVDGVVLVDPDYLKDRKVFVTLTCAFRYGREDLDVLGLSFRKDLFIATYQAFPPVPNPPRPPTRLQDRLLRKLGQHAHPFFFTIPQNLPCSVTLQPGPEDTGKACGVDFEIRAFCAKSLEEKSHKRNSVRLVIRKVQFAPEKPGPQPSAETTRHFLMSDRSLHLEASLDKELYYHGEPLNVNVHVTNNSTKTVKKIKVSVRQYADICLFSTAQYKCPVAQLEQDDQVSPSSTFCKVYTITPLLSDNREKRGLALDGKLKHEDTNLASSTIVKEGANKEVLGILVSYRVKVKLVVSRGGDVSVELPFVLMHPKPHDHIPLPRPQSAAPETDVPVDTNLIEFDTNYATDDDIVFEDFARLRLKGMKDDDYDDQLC
For assay [3], the target named is T2, M1mAChR (Homo sapiens, UniProt P11229).
T2 sequence (P11229 1-460): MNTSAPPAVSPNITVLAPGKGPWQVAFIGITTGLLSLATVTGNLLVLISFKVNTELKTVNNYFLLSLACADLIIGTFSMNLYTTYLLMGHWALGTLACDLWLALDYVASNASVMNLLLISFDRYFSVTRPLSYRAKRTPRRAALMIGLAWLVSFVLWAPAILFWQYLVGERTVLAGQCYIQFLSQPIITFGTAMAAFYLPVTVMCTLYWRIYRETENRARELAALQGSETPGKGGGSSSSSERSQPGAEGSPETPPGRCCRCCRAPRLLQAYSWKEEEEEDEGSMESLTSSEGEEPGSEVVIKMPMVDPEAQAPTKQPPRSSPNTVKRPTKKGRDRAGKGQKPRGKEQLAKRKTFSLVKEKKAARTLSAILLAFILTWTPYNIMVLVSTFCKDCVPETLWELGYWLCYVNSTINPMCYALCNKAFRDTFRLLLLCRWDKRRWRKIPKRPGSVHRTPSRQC
Kind of assay: cell-based. The conditions noted are these: for EC50: CHO-M1 cells, unit inferred, read-out: EC50, Fluo4-AM calcium, printed in Figure 6 panels B-G. On the procedure: The M1mAChR receptor primarily couples with Gαq, which connects it to several signaling pathways, such as PLC (phospholipase C, PLC), IP3 (inositol triphosphate, IP3), DAG (diacylglycerol, DAG), PKC (protein kinase C, PKC), and calcium signaling. Additionally, the Gαq-PLC signaling pathway plays a role in the activation of cAMP ([…], cAMP) via IP3-calcium release and calmodulin [9].
The influx of intracellular calcium was determined using Fluo4-AM (DOJINDO, Tonomachi, Japan, Cat. No.F311). CHO-M1 cells were seeded on 96-well plates at a density of 40,000 cells/well. The cells were treated with 5 µM of Fluo4-AM in 5 mM of CaCl2 buffer and incubated for 30 min at 37 °C in complete darkness.

Assay [4] has as its target T2, M1mAChR. Kind of assay: cell-based. The following applies: for EC50: CHO-M1 cells, unit inferred, read-out: EC50, β-arrestin2 recruitment by FRET, printed in Figure 6 panels I-N. Here is the method:
To further analyze the signaling bias of the agonists, a β-arrestin recruitment kit was utilized based on HTRF (Homogeneous Time Resolved Fluorescence, HTRF) technology. The interaction between native β-arrestin2 and AP2 was detected using a Europium cryptate-labeled AP2 (Adaptin2, AP2) antibody (Europium donor) and a d2-labeled β-arrestin2 antibody (acceptor) (Figure 6H).
We used the β-arrestin2 recruitment KIT test (PerkinElmer, Waltham, MA, USA, Cat. No. 62BDBAR2PEB). Following 24 h of incubation, the cell culture medium was removed, and Stimulation Buffer 4 was added to the negative control group and the blank group, while a diluted agonist was added to the agonist group, at a volume of 100 µL for each group. The plates were then sealed and allowed to incubate at room temperature for 15 min. Then, we removed the Stimulation Buffer 4 from the wells and added 30 µL of Stabilization Buffer 1, sealed the plate, and incubated it at room temperature for 15 min. Afterward, Stabilization Buffer 1 was removed, and the wells were washed three times with 100 µL of Wash Buffer 1. Following that, 100 µL of pre-mixed d2 and Eu cryptate antibodies were added to the wells, and the plates were sealed and incubated overnight at room temperature. Finally, the plates were read using an HTRF-compatible reader.

The target in assay [5] is T1, M1mAChR. Format: cell-based. The conditions noted are these: Scopolamine 100 μM; agonist 1 μM (Pilocarpine 300 μM); mean response 100 s before vs after antagonist. On the procedure: (§1) Incubate the cells for another 24 h at 37 °C with 5% CO2 until the cell density reaches 70%~80%. To transfect the cells, use expression constructs (total 0.1 μg/well) with a 1:1:1:1 DNA ratio of M1-RLuc8/Gαq/Gβ2/Gγ2-mVenus, or a 1:2 DNA ratio of M1-RLuc8/β-arrestin2-mVenus, and LipofectamineTM 3000 (0.15 µL/well) reagents (Thermo Scientific, Waltham, MA, USA, Cat. No. R25001). Incubate the cells for another 24 h at 37 °C with 5% CO2. […] Then, add 10 µL of freshly prepared luciferase substrate (here, Coelenterazine h was added at a final concentration of 5 μM, Hangzi Biotechnology, Shanghai, China) and mix the solution.
Target sequence in this assay (P50148 whole entry partner, one chain of several): as the sequence (P50148 whole entry partner, one chain of several) above
Target sequence in this assay (P62879 2-340 partner limits assumed, one chain of several): as the sequence (P62879 2-340 partner limits assumed, one chain of several) above
Target sequence in this assay (P59768 2-68 partner limits assumed, one chain of several): as the sequence (P59768 2-68 partner limits assumed, one chain of several) above

In assay [6] the target is T1, M1mAChR. Format: cell-based. On the procedure: The kinetic response of the agonists to β-arrestin recruitment was analyzed.
The mean response over 100 s before and after the injection of the antagonist was also analyzed.
as §1
Target sequence in this assay (P32121 whole entry partner, one chain of several): as the sequence (P32121 whole entry partner, one chain of several) above

For assay [7], the target named is T2, M1mAChR. Format: cell-based. The following applies: BRET assays. Here is the method: The potencies and efficacies of Gαq and β-arrestin2 were verified using BRET assays, as well as commercial methods, to monitor G protein binding and β-arrestin recruitment (refer to Figure 7). […] The BRET concentration–response curves were analyzed by either conducting normalization to a reference agonist for each experiment or by analyzing them as raw net BRET (fit Emax-fit baseline). The EC50 and Emax values were estimated by fitting all biological replicates simultaneously. […] To estimate the putative signaling bias between the Gαq and β-arrestin pathways, the ΔΔlog(τ/KA) method was used, based on the following equation: bias = 10^ΔΔlog(τ/KA) Gαq−β-arrestin [46], which is derived from the RAi equation [29]. Here, ΔΔlog (τ/KA) Gαq−β-arrestin = Δlog(τ/KA) Gαq − Δlog(τ/KA) β-arrestin. For all statistically analyzed studies, the experiments were performed at least three times independently. The experiments were carried out in a randomized manner. The results are presented as the mean ± SEM. Statistical analysis was performed with a one-way analysis of variance (ANOVA). A value of p < 0.05 was considered statistically significant.

The target of assay [8] is T2, M1mAChR. Type of assay: cell-based. The conditions noted are these: calcium assay and commercial β-arrestin recruitment method.
The next assay deals with muscarinic. Details: method as in PMID 22948826. The conditions noted are these: times more potent than ACh; cited from earlier work.
Setting [9] is: dose-response curve, unit inferred, read-out: EC50, Gαq interaction with M1mAChR (BRET), in Figure 2 panels.
Setting [10] is: read-out: EC50, Gαq binding to M1mAChR (BRET).
Where [11] appears, read: dose-response curve, unit inferred, read-out: EC50, β-arrestin2 interaction with M1mAChR (BRET), Figure 4.
Setting [12] is: read-out: EC50, β-arrestin2 binding to M1mAChR (BRET).
[13] abbreviates: relative intrinsic activity, relative to ACh.

For `C[N+](C)(C)CC#CCOC(=O)Nc1cccc(Cl)c1` [McN-A-343], the EC50 at M1mAChR [1] (setting [9]) was found to be 0.0111 µM; at M1mAChR [1] (setting [10]), 0.011 µM; on M1mAChR [2] (setting [11]), 0.981 µM; at M1mAChR [2] (setting [12]), 0.98 µM; on M1mAChR [3] it was 0.718 µM; on M1mAChR [4] it was 1.55 µM.
Consider `C[N+](C)(C)CC#CCOC1=NOCC1` [Iperoxo], for which the EC50 on M1mAChR [1] (setting [9]) came out at 0.0248 µM; at M1mAChR [1] (setting [10]) it was 0.0248 µM; at M1mAChR [2] (setting [11]), 0.072 µM; at M1mAChR [2] (setting [12]) it was 0.072 µM; on M1mAChR [3], 0.0125 µM; on M1mAChR [4], 0.646 µM. The “Gαq (BRET) (Δlog (τ/KA))” value at M1mAChR [1] (setting [13]) came to 1.56 ± 0.090. For the same compound, the “β-Arrestin (BRET) (Δlog (τ/KA))” value on M1mAChR [2] (setting [13]) worked out at 1.27 ± 0.020. In addition, the “Gαq (Fluo4-AM) (Δlog (τ/KA))” value on M1mAChR [3] (setting [13]) was 0.98 ± 0.003. Besides, on M1mAChR [4] (setting [13]), the “β-Arrestin (FRET) (Δlog (τ/KA))” value is −0.03 ± 0.040. For the same compound, on M1mAChR [5], the “decrease of agonist-induced Gαq BRET response by Scopolamine” value is reported as “approximately 41%”. The “decrease of agonist-induced β-arrestin2 BRET response by Atropine” value at M1mAChR [6] is 60%. Also, at M1mAChR [6], the “decrease of agonist-induced β-arrestin2 BRET response by Scopolamine” value was 54%. For the same compound, the “∆∆RAi (Gαq − β-arrestin2)” value at M1mAChR [7] stood at 0.3. Moreover, the “bias factor (Gαq vs β-arrestin2)” value on M1mAChR [7] (bias = 10^ΔΔlog(τ/KA) Gαq−β-arrestin, relative to ACh) was found to be 2. Besides, the “signaling bias by commercial methods” value on M1mAChR [8] is given as “predominantly biased towards Gαq”. Besides, the “potency relative to ACh” value in the assay on muscarinic was “approximately 100 times”.
